Laboratory results reported in PMC6950057, “Toxicity, Pharmacokinetics, and Gut Microbiome of Oral Administration of Sesterterpene MHO7 Derived from a Marine Fungus” (Marine Drugs, 2019).

System: gut microbiota
Experiment: Gut (cecal) microbiota analysis by 16S rRNA sequencing
Format: in vivo, mice
Settings: for amount of OTUs vs control: p < 0.001; for gut community richness (Sobs index) vs control: p < 0.01
Protocol: Fresh cecal samples from 24 (n = 6 per group) mice were collected at 1, 8 and 30 h after oral administration of 500 mg·kg^−1 MHO7 meanwhile control group was collected at 8 h after oral the same volume corn oil, respectively. All of the cecal samples were collected in sterile environments and containers, snap-frozen in liquid nitrogen, and then stored at −80 °C.
Microbial DNA was extracted from 24 cecal samples using the E.Z.N.A.® soil DNA Kit (Omega Bio-tek, Norcross, GA, USA) according to manufacturer’s protocols. The final DNA concentration and purification were determined by NanoDrop 2000 UV-vis spectrophotometer (Thermo Scientific, Wilmington, DE, USA), and DNA quality was checked by 1% agarose gel electrophoresis. The V3-V4 hypervariable regions of the bacteria 16S rRNA gene were amplified with primers 338F (5’- […]-3’) and 806R (5’-[…]-3’) by thermocycler PCR system (GeneAmp 9700, ABI, Foster City, CA, USA). The PCR reactions were conducted using the following program: 3 min of denaturation at 95 °C; 27 cycles of 30 s at 95 °C, 30 s for annealing at 55 °C, and 45 s for elongation at 72 °C; and a final extension at 72 °C for 10 min. PCR reactions were performed in triplicate 20 μL mixture containing 4 μL of 5 × FastPfu Buffer, 2 μL of 2.5 mM·L^−1 dNTPs, 0.8 μL of each primer (5 μM·L^−1), 0.4 μL of FastPfu Polymerase, and 10 ng of template DNA. The resulted PCR products were extracted from a 2% agarose gel and further purified using the AxyPrep DNA Gel Extraction Kit (Axygen Biosciences, Union City, CA, USA) and quantified using QuantiFluor ™ -ST (Promega, Madison, […], USA) according to the manufacturer’s protocol.
Purified amplicons were pooled in equimolar and paired-end sequenced (2 × 300) on an Illumina MiSeq platform (Illumina, San Diego, CA, USA) according to the standard protocols by Majorbio Bio-Pharm Technology Co. Ltd. (Shanghai, China).
Raw fastq files were quality-filtered by Trimmomatic and merged by FLASH according to the following criteria: (i) The reads were truncated at any site receiving an average quality score < 20 over a 50 bp sliding window. (ii) Sequences whose overlap was longer than 10 bp were merged according to their overlap with mismatch no more than 2 bp. (iii) Sequences of each sample were separated according to barcodes (exactly matching) and Primers (allowing 2 nucleotide mismatching), and reads containing ambiguous bases were removed. Operational taxonomic units (OTUs) were clustered using UPARSE (version 7.1, http://drive5.com/uparse/) at a 97% similarity level with a novel “greedy” algorithm that performs chimera filtering and OTU clustering simultaneously. The taxonomy of each 16S rRNA gene sequence was analyzed by RDP Classifier algorithm (http://rdp.cme.msu.edu/) against the Silva (SSU123) 16S rRNA database using confidence threshold of 70%.

[1] = MHO7-1h group, cecal, oral 500 mg·kg^−1
[2] = MHO7-8h group, cecal, oral 500 mg·kg^−1
[3] = MHO7-30h group, cecal, oral 500 mg·kg^−1

SMILES: CC(C)=C/C=C/[C@H](C)[C@H]1CC[C@]2(C)C[C@@H]3C(C)=CC(=O)[C@H]3/C(C=O)=C\C[C@@H]12 [MHO7, 6-epi-ophiobolin G]
- richness, diversity, OTU number of gut microbiome vs control (MHO7-1 h group): no significant difference
- Relative abundance, class Bacilli [1]: 10.08±7.69%
- Relative abundance, class Clostridia [1]: 38.58 ± 11.1%
- Relative abundance, class Mollicutes [1]: 0.46±0.25%
- Relative abundance, class Verrucomicrobiae [1]: 0.0019±0.002%
- Relative abundance, family Bacteroidales_S24-7_group [1]: 33.99±6.67%
- Relative abundance, family Lachnospiraceae [1]: 27.23±10.42%
- Relative abundance, family Lactobacillaceae [1]: 10.05±7.69%
- Relative abundance, family Rikenellaceae [1]: 7.09±0.86%
- Relative abundance, family Ruminococcaceae [1]: 10.04±1.97%
- Relative abundance, family Verrucomicrobiaceae [1]: 0.0019±0.0021%
- Relative abundance, genus Anaeroplasma [1]: 0.12±0.11%
- Relative abundance, genus Coprococcus_1 [1]: 0.19±0.10%
- Relative abundance, genus Family_XIII_AD3011_group [1]: 0.067±0.041%
- Relative abundance, genus Lachnoclostridium [1]: 0.51±0.21%
- Relative abundance, genus Lactobacillus [1]: 10.05±7.69%
- Relative abundance, genus Papillibacter [1]: 0.0062±0.0066%
- Relative abundance, genus Peptococcus [1]: 0.010±0.0061%
- Relative abundance, genus Prevotellaceae_NK3B31_group [1]: 0.46±0.31%
- Relative abundance, genus Prevotellaceae_UCG-001 [1]: 0.78±0.51%
- Relative abundance, genus Rikenellaceae_RC9_gut_group [1]: 2.82±0.76%
- Relative abundance, genus Ruminiclostridium [1]: 0.78±0.59%
- Relative abundance, genus Ruminiclostridium_5 [1]: 0.34±0.14%
- Relative abundance, genus Ruminiclostridium_9 [1]: 0.76±0.29%
- Relative abundance, genus Ruminococcaceae_NK4A214_group [1]: 0.076±0.024%
- Relative abundance, genus Ruminococcaceae_UCG-009 [1]: 0.066±0.050%
- Relative abundance, genus Ruminococcaceae_UCG-010 [1]: 0.12±0.046%
- Relative abundance, genus Ruminococcaceae_UCG-014 [1]: 2.73±0.93%
- Relative abundance, genus Ruminococcus_1 [1]: 1.53±1.04%
- Relative abundance, genus Streptococcus [1]: 0.023±0.0050%
- Relative abundance, genus [Eubacterium]_coprostanoligenes_group [1]: 0.13±0.12%
- Relative abundance, genus [Eubacterium]_ventriosum_group [1]: 0.13±0.089%
- Relative abundance, genus g__norank_f__Bacteroidales_S24-7_group [1]: 33.99±6.67%
- Relative abundance, genus g__norank_f__Christensenellaceae [1]: 0.034±0.014%
- Relative abundance, genus g__norank_f__Lachnospiraceae [1]: 6.456±2.68%
- Relative abundance, genus g__norank_f__Ruminococcaceae [1]: 0.31±0.22%
- Relative abundance, genus norank_o__Mollicutes_RF9 [1]: 0.34±0.17%
- Relative abundance, order Anaeroplasmatales [1]: 0.12±0.11%
- Relative abundance, order Bacillales [1]: 0.0000%
- Relative abundance, order Clostridiales [1]: 38.54±11.15%
- Relative abundance, order Lactobacillales [1]: 10.10±7.65%
- Relative abundance, order Mollicutes_RF9 [1]: 0.33±0.16%
- Relative abundance, order Verrucomicrobiales [1]: 0.0022±0.0027%
- Relative abundance, phylum Deferribacteres [1]: 0.14±0.12%
- Relative abundance, phylum Proteobacteria [1]: 0.18±0.045%
- Relative abundance, phylum Saccharibacteria [1]: 0.47±0.28%
- Relative abundance, phylum Tenericutes [1]: 0.46±0.25%
- gut community diversity (Shannon index) vs control (MHO7-8 h group, OTU level, p < 0.05): decreased significantly
- amount of OTUs vs control (MHO7-8 h group): remarkable reduction
- gut community richness (Sobs index) vs control (MHO7-8 h group): remarkable reduction
- Relative abundance, class Bacilli [2]: 11.49±12.09%
- Relative abundance, class Clostridia [2]: 28.98 ± 20.11%
- Relative abundance, class Mollicutes [2]: 0.0075±0.0048%
- Relative abundance, class Verrucomicrobiae [2]: 0.80±1.18%
- Relative abundance, family Bacteroidales_S24-7_group [2]: 33.65±5.47%
- Relative abundance, family Lachnospiraceae [2]: 21.66±15.88%
- Relative abundance, family Lactobacillaceae [2]: 11.34±12.11%
- Relative abundance, family Rikenellaceae [2]: 3.66±2.13%
- Relative abundance, family Ruminococcaceae [2]: 6.20±4.57%
- Relative abundance, family Verrucomicrobiaceae [2]: 0.80±1.18%
- Relative abundance, genus Coprococcus_1 [2]: 0.21±0.17%
- Relative abundance, genus Family_XIII_AD3011_group [2]: 0.0069±0.0077%
- Relative abundance, genus Lachnoclostridium [2]: 0.81±0.61%
- Relative abundance, genus Lactobacillus [2]: 11.34±12.11%
- Relative abundance, genus Papillibacter [2]: 0.0025±0.0061%
- Relative abundance, genus Peptococcus [2]: 0.0050±0.010%
- Relative abundance, genus Prevotellaceae_NK3B31_group [2]: 2.54±2.44%
- Relative abundance, genus Prevotellaceae_UCG-001 [2]: 4.09±3.41%
- Relative abundance, genus Rikenellaceae_RC9_gut_group [2]: 0.088±0.089%
- Relative abundance, genus Ruminiclostridium [2]: 0.36±0.31%
- Relative abundance, genus Ruminiclostridium_5 [2]: 0.21±0.21%
- Relative abundance, genus Ruminiclostridium_9 [2]: 0.60±0.59%
- Relative abundance, genus Ruminococcaceae_NK4A214_group [2]: 0.023±0.021%
- Relative abundance, genus Ruminococcaceae_UCG-009 [2]: 0.063±0.072%
- Relative abundance, genus Ruminococcaceae_UCG-010 [2]: 0.036±0.042%
- Relative abundance, genus Ruminococcaceae_UCG-014 [2]: 0.19±0.25%
- Relative abundance, genus Ruminococcus_1 [2]: 0.38±0.32%
- Relative abundance, genus Staphylococcus [2]: 0.066±0.060%
- Relative abundance, genus Streptococcus [2]: 0.029±0.016%
- Relative abundance, genus Sutterella [2]: 0.0069±0.010%
- Relative abundance, genus [Eubacterium]_coprostanoligenes_group [2]: 0.22±0.23%
- Relative abundance, genus [Eubacterium]_ventriosum_group [2]: 0.012±0.020%
- Relative abundance, genus g__norank_f__Bacteroidales_S24-7_group [2]: 33.65±5.47%
- Relative abundance, genus g__norank_f__Christensenellaceae [2]: 0.011±0.0079%
- Relative abundance, genus g__norank_f__Lachnospiraceae [2]: 7.54±4.66%
- Relative abundance, genus g__norank_f__Ruminococcaceae [2]: 0.31±0.26%
- Relative abundance, genus norank_o__Mollicutes_RF9 [2]: 0.0075±0.0047%
- Relative abundance, order Anaeroplasmatales [2]: 0.00028±0.00068%
- Relative abundance, order Bacillales [2]: 0.071±0.067%
- Relative abundance, order Clostridiales [2]: 28.89±20.03%
- Relative abundance, order Lactobacillales [2]: 11.34±12.02%
- Relative abundance, order Mollicutes_RF9 [2]: 0.0057±0.0040%
- Relative abundance, order Verrucomicrobiales [2]: 0.78±1.15%
- Relative abundance, phylum Deferribacteres [2]: 0.0044±0.0050%
- Relative abundance, phylum Proteobacteria [2]: 2.05±1.47%
- Relative abundance, phylum Saccharibacteria [2]: 0.35±0.61%
- Relative abundance, phylum Tenericutes [2]: 0.0075±0.0047%
- amount of OTUs vs control (MHO7-30 h group): remarkable reduction
- gut community richness (Sobs index) vs control (MHO7-30 h group): remarkable reduction
- Relative abundance, class Bacilli [3]: 3.25±3.05%
- Relative abundance, class Clostridia [3]: 47.82 ± 20.66%
- Relative abundance, class Mollicutes [3]: 0.0012±0.0031%
- Relative abundance, class Verrucomicrobiae [3]: 2.51±3.67%
- Relative abundance, family Bacteroidales_S24-7_group [3]: 19.34±6.97%
- Relative abundance, family Lachnospiraceae [3]: 42.58±19.32%
- Relative abundance, family Lactobacillaceae [3]: 3.21±2.99%
- Relative abundance, family Rikenellaceae [3]: 3.19±2.16%
- Relative abundance, family Ruminococcaceae [3]: 4.13±1.97%
- Relative abundance, family Verrucomicrobiaceae [3]: 2.51±3.67%
- Relative abundance, genus Coprococcus_1 [3]: 0.11±0.068%
- Relative abundance, genus Family_XIII_AD3011_group [3]: 0.021±0.014%
- Relative abundance, genus Lachnoclostridium [3]: 2.42±2.02%
- Relative abundance, genus Lactobacillus [3]: 3.21±2.99%
- Relative abundance, genus Papillibacter [3]: 0.00062±0.0015%
- Relative abundance, genus Peptococcus [3]: 0.0050±0.0056%
- Relative abundance, genus Prevotellaceae_NK3B31_group [3]: 0.14±0.19%
- Relative abundance, genus Prevotellaceae_UCG-001 [3]: 1.07±1.13%
- Relative abundance, genus Rikenellaceae_RC9_gut_group [3]: 0.042±0.084%
- Relative abundance, genus Ruminiclostridium [3]: 0.079±0.076%
- Relative abundance, genus Ruminiclostridium_5 [3]: 0.27±0.23%
- Relative abundance, genus Ruminiclostridium_9 [3]: 0.41±0.20%
- Relative abundance, genus Ruminococcaceae_NK4A214_group [3]: 0.020±0.023%
- Relative abundance, genus Ruminococcaceae_UCG-009 [3]: 0.012±0.015%
- Relative abundance, genus Ruminococcaceae_UCG-010 [3]: 0.0062±0.0061%
- Relative abundance, genus Ruminococcaceae_UCG-014 [3]: 0.022±0.030%
- Relative abundance, genus Ruminococcus_1 [3]: 0.071±0.15%
- Relative abundance, genus Streptococcus [3]: 0.0025±0.0031%
- Relative abundance, genus Sutterella [3]: 0.090±0.090%
- Relative abundance, genus [Eubacterium]_coprostanoligenes_group [3]: 0.28±0.50%
- Relative abundance, genus [Eubacterium]_ventriosum_group [3]: 0.022±0.041%
- Relative abundance, genus g__norank_f__Bacteroidales_S24-7_group [3]: 19.34±6.97%
- Relative abundance, genus g__norank_f__Christensenellaceae [3]: 0.0069±0.0087%
- Relative abundance, genus g__norank_f__Lachnospiraceae [3]: 19.81±11.07%
- Relative abundance, genus g__norank_f__Ruminococcaceae [3]: 0.16±0.13%
- Relative abundance, genus norank_o__Mollicutes_RF9 [3]: 0.0012±0.0031%
- Relative abundance, order Anaeroplasmatales [3]: 0.00000%
- Relative abundance, order Bacillales [3]: 0.00034±0.00084%
- Relative abundance, order Clostridiales [3]: 47.86±20.61%
- Relative abundance, order Lactobacillales [3]: 3.26±3.04%
- Relative abundance, order Mollicutes_RF9 [3]: 0.0014±0.0025%
- Relative abundance, order Verrucomicrobiales [3]: 2.52±3.65%
- Relative abundance, phylum Deferribacteres [3]: 0.25±0.23%
- Relative abundance, phylum Proteobacteria [3]: 1.34±1.58%
- Relative abundance, phylum Saccharibacteria [3]: 0.0069±0.0055%
- Relative abundance, phylum Tenericutes [3]: 0.0013±0.0031%
- abundance of dominant phyla Firmicutes and Bacteroidetes (at 1, 8 or 30 h after oral administration): no significant differences
